Measurements taken from the supplement of paper PMC10307832.

Columns and labels:
Assay in all cases: relative viability (nuclei count vs DMSO), 5 days (fraction); higher = more cells survive
RU-SKI 43 + Foretinib = compound: CC[C@@H](C)CNCC(=O)N1CCC2=C([C@@H]1COC3=CC=CC(=C3)C)C=CS2 [RU-SKI 43] + COc1cc2c(Oc3ccc(NC(=O)C4(C(=O)Nc5ccc(F)cc5)CC4)cc3F)ccnc2cc1OCCCN1CCOCC1 [Foretinib] (partner 0.25 µM)
In short: (§1)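 The day after seeding in 1536-well plates, lung cancer cell lines were treated by pin tool with a single drug, or with a fixed anchor-drug dose together with five library-drug doses (not always all listed) in √10 steps. After 5 days, a combined fix-and-stain solution (final 0.05% Triton X-100, 1% formaldehyde, 1 ug/ml Hoechst) was added. Nuclei counted on 4× images gave relative viability as treated counts over vehicle counts, reported as the median of duplicate plates.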

Irinotecan + Tozasertib = compound: CCc1c2c(nc3ccc(OC(=O)N4CCC(N5CCCCC5)CC4)cc13)-c1cc3c(c(=O)n1C2)COC(=O)[C@]3(O)CC [Irinotecan] + Cc1cc(Nc2cc(N3CCN(C)CC3)nc(Sc3ccc(NC(=O)C4CC4)cc3)n2)n[nH]1 [Tozasertib] (partner 0.1 µM)
In short: as §1

RU-SKI 43 + Bortezomib = compound: CC[C@@H](C)CNCC(=O)N1CCC2=C([C@@H]1COC3=CC=CC(=C3)C)C=CS2 [RU-SKI 43] + CC(C)C[C@H](NC(=O)[C@H](Cc1ccccc1)NC(=O)c1cnccn1)B(O)O [Bortezomib] (partner 0.002 µM)
In short: as §1

MK-8033 + Vorinostat = compound: Cn1cc(-c2cnc3ccc4ccc(CS(=O)(=O)NCc5ccccn5)cc4c(=O)c3c2)cn1 [MK-8033] + O=C(CCCCCCC(=O)Nc1ccccc1)NO [Vorinostat] (partner 1 µM)
In short: as §1

Cell Line	relative viability (RU-SKI 43 + Foretinib; first compound 0.1 µM)	relative viability (RU-SKI 43 + Foretinib; first compound 0.3162 µM)	relative viability (RU-SKI 43 + Foretinib; first compound 1 µM)	relative viability (RU-SKI 43 + Foretinib; first compound 3.162 µM)	relative viability (RU-SKI 43 + Foretinib; first compound 10 µM)	relative viability (Irinotecan + Tozasertib; first compound 0.6325 µM)	relative viability (Irinotecan + Tozasertib; first compound 2 µM)	relative viability (Irinotecan + Tozasertib; first compound 6.325 µM)	relative viability (Irinotecan + Tozasertib; first compound 20 µM)	relative viability (RU-SKI 43 + Bortezomib; first compound 0.1 µM)	relative viability (RU-SKI 43 + Bortezomib; first compound 0.3162 µM)	relative viability (RU-SKI 43 + Bortezomib; first compound 1 µM)	relative viability (RU-SKI 43 + Bortezomib; first compound 3.162 µM)	relative viability (RU-SKI 43 + Bortezomib; first compound 10 µM)	relative viability (MK-8033 + Vorinostat; first compound 0.02 µM)	relative viability (MK-8033 + Vorinostat; first compound 0.2 µM)	relative viability (MK-8033 + Vorinostat; first compound 0.6325 µM)	relative viability (MK-8033 + Vorinostat; first compound 2 µM)	relative viability (MK-8033 + Vorinostat; first compound 0.06325 µM)
HCC-827	1.01	1.11	1.11	1.07	1.01	0.318	0.307	0.249	0.175	0.989	1.07	1.18	1.11	1.02	1.1	0.8	0.907	0.959	
HOP-62	1.1	1.2	1.15	1.24	1.13	0.234	0.328	0.249	0.215	0.728	0.561	1.01	0.731	0.765	0.549	0.61	0.717	0.588	0.617
LC-2-ad	0.929	0.922	0.908	1.02	0.838	0.439	0.437	0.343	0.233	1.03	1.21	1.06	1.1	0.867	0.786	0.618	0.75	0.659	0.651
LCLC-97TM1	0.945	0.938	1.05	1	1.04	0.14	0.176	0.125	0.113	0.852	0.827	1.79	0.684	0.645	0.662		0.825	0.761	0.48
LCLC-103H	0.759	0.896	0.91	0.843	0.783	0.431	0.425	0.301	0.32	0.969	1.09	1.31	1.1	0.985	0.767	0.753	0.704	0.807	0.719
LOU-NH91	0.953	0.912	0.914	1.01	0.897	0.568	0.533	0.358	0.222	0.53	0.485	0.519	0.502	0.497	0.923	0.835	0.86	0.92	0.638
LU99A	0.86	0.99	0.815	0.742	0.731	0.257	0.223	0.153	0.225	1.08	1.3	1.15	1.23	1.03	0.511	0.565	0.53	0.433	0.495
LXF-289	0.934	1.03	1.05	1.09	0.97	0.185	0.179	0.112	0.174	1.06	0.977	1.03	1.06	0.974	0.843	0.737	0.755	0.812	0.615
NCI-H23	1.01	0.882	1.12	1.27	0.973	0.24	0.256	0.235	0.218	0.968	1.16	0.958	1.36	0.899	0.678	0.405		0.587	0.455
NCI-H322M	0.939	1.09	1.11	1.03	0.892	0.461	0.511	0.411	0.202	1.2	1.3	1.3	1.24	1.28	1.04	0.829	0.966	0.888	0.774
NCI-H441	0.981	1.01	1.09	1.04	0.842	0.497	0.443	0.374	0.295	0.649	0.243	0.657	0.562	0.393	0.795	0.823	0.706	0.732	0.738
NCI-H460	0.923	1.16	1.09	1.13	0.97	0.374	0.186	0.0861	0.0393	1.23	1.8	1.53	1.25	1.03	0.79	0.656	0.742	0.726	0.473
NCI-H520	0.816	0.892	0.812	0.859	0.539	0.446	0.514	0.445	0.427	0.572	0.798	0.721	0.667	0.597	0.636	0.777	0.705	0.657	0.689
NCI-H596	0.955	0.676	0.886	0.989	0.931	0.798	0.878	0.632	0.624	1.32	0.93	1.34	0.936	1.1	0.59	0.549	0.64	0.568	0.629
NCI-H647	1.39	1.42	1.25	1.17	1.25	0.24	0.294	0.151	0.0868	0.956	0.841	1.08	1.25	1.14	0.633	0.527	0.598	0.75	0.378
NCI-H650	1.05	1.02	1.1	1.09	1.08	0.703	0.553	0.202	0.181	1.02	0.779	1.1		0.891	0.512	0.496	0.428	0.371	0.5
NCI-H661	1.01	1.29	1	1.09	0.894	0.372	0.372	0.469	0.333	0.776	0.704	0.835	0.943	0.764	0.785	0.793	0.761	0.767	0.71

Cell Line	relative viability (RU-SKI 43 + Foretinib; first compound 0.1 µM)	relative viability (RU-SKI 43 + Foretinib; first compound 0.3162 µM)	relative viability (RU-SKI 43 + Foretinib; first compound 1 µM)	relative viability (RU-SKI 43 + Foretinib; first compound 3.162 µM)	relative viability (RU-SKI 43 + Foretinib; first compound 10 µM)	relative viability (Irinotecan + Tozasertib; first compound 0.6325 µM)	relative viability (Irinotecan + Tozasertib; first compound 2 µM)	relative viability (Irinotecan + Tozasertib; first compound 6.325 µM)	relative viability (Irinotecan + Tozasertib; first compound 20 µM)	relative viability (RU-SKI 43 + Bortezomib; first compound 0.1 µM)	relative viability (RU-SKI 43 + Bortezomib; first compound 0.3162 µM)	relative viability (RU-SKI 43 + Bortezomib; first compound 1 µM)	relative viability (RU-SKI 43 + Bortezomib; first compound 3.162 µM)	relative viability (RU-SKI 43 + Bortezomib; first compound 10 µM)	relative viability (MK-8033 + Vorinostat; first compound 0.02 µM)	relative viability (MK-8033 + Vorinostat; first compound 0.2 µM)	relative viability (MK-8033 + Vorinostat; first compound 0.6325 µM)	relative viability (MK-8033 + Vorinostat; first compound 2 µM)	relative viability (MK-8033 + Vorinostat; first compound 0.06325 µM)
NCI-H727	1.11	0.879	1.2	1.07	0.863	0.524	0.551	0.47	0.507	1	1.14	0.834	0.839	0.802	1.2	1.11	1.16	1.13	0.981
NCI-H838	1.15	0.994	0.987	1.21	0.964	0.283	0.491	0.23	0.242	0.718	0.955	0.912	0.748	0.992	0.765	0.674	0.736	0.734	0.67
NCI-H1355	0.914	1.22	1.01	1.02	0.936		0.486	0.311	0.227	1.21	1.29	1.18	1.21	1.2	0.62	0.62	0.658	0.592	0.549
NCI-H1437	1.22	1.24	1.37	1.2	1.22	0.339	0.387	0.312	0.218	0.581	0.594	0.637	0.629	0.526	0.703	0.732	0.899	0.769	0.801
NCI-H1650	1.05	1.22	1.24	1.02	0.887		0.423	0.366	0.211	0.204	0.208	0.222	0.209	0.192	0.507	0.723	0.532	0.562	0.416
NCI-H1651	0.896	0.849	0.864	0.888	0.848	0.532	0.575	0.255	0.183	0.93	1.1	1.01	0.931	0.947	0.665	0.593	0.597	0.633	0.484
NCI-H1666	0.922	0.96	0.926	0.773	0.848	0.552	0.543	0.569	0.26	0.704	0.84	0.702	0.719	0.534	1.04	1.01	1.09	1.04	1.01
NCI-H1734	0.844	0.913	0.938	0.781	0.656		0.279	0.198	0.33	0.971	1.08	0.917	0.824	0.789	0.874	0.698	0.836	0.758	0.639
NCI-H1755	0.935	1.07	0.975	0.979	0.919	0.469	0.463	0.316	0.405	0.978	1.14	1.04	0.941	0.986	0.748	0.75	0.678	0.766	0.791
NCI-H1915	1.19	1.23	1.17	1.15	1.14	0.312	0.27	0.192	0.173	1.05	1.39	1.1	0.959	1.02	0.467	0.518	0.494	0.49	0.438
NCI-H1975	1.09	1.28	1.01	0.922	0.939	0.929	0.726	0.354	0.199	0.441	0.421	0.464	0.4	0.34	0.713	0.634	0.695	0.752	0.669
NCI-H1993	0.747	0.889	0.786	0.801	0.729	0.582	0.71	0.639	0.644	1.04	1.01	1.15	1.1	0.756	0.688	0.587	0.571	0.638	0.644
NCI-H2009	1.21	1.42	1.31	1.24	1.17	0.599	0.566	0.334	0.13	1.05	1.02	1.01	1.12	0.968	0.678	0.776	0.733	0.676	0.689
NCI-H2023	0.954	1.1	0.82	0.828	0.558	0.355	0.408	0.205	0.104	0.88	1.21	1.04	1.15	0.932	0.857	0.583	0.515	0.491	0.44
NCI-H2085	0.928	0.772	0.91	0.93	0.934	0.843	0.726	0.505	0.51	1.03	1.08	1.1	0.995	0.988	0.744	0.691	0.835	0.764	0.734
NCI-H2087	1.07	1.25	1.24	1.28	0.961	0.184	0.239	0.36	0.192	0.759	0.942	0.996	0.735	0.925	0.788	0.749	0.728	0.692	0.368
